According to patent US6962943B2, “Gabusectin derivatives, processes for preparing them and their use” (Aventis Pharma Deutschland GmbH, priority 2002, dated 2005):
Converted amounts (≈) assume the structure as drawn.

Tests used:
Staphylococcus aureus = assay: Agar diffusion test; format: cell-based; conditions: 37° C., 16 hours
Protocol: Agar plates containing 2 ml of Staphylococcus aureus inoculum in 200 ml of agar solution were prepared. gabusectin was applied, in a 10 mM solution, to 6 mm-diameter paper disks, which were then laid on the agar plate. The inoculated Staphylococcus plates were incubated at 37° C. for 16 hours. Inhibition halos having the following diameters (mm) were then observed: Agar plates containing 2 ml of Staphylococcus aureus inoculum in 200 ml of agar solution were prepared. gabusectin methyl ester is applied, in a 10 mM solution, to 6 mm-diameter paper disks, which are then laid on the agar plate. The inoculated Staphylococcus plates were incubated at 37° C. for 16 hours. Inhibition halos having the following diameters (mm) were then observed.

[1] = Solubility (appearance/physicochemical properties)
Excerpt: (§1) Stable in neutral and mildly acidic medium but unstable in strongly acidic and strongly alkali solution. […] Stable in neutral and mildly acidic medium but unstable in strongly acidic and strongly alkaline solution.

[2] = Stability in solution (physicochemical properties); conditions: for Stability in strongly acidic and strongly alkaline solution: strongly acidic and strongly alkali(ne) solution
Excerpt: as §1

E. faecium (M78L) = assay: In-vitro antibacterial activity, serial dilution test; format: cell-based; conditions: Enterococcus faecium, read-out: MIC values
Excerpt: (§2) Table 1 summarizes the minimum inhibitory concentrations (MICs) of gabusectin, by way of example.

S. aureus (Exp54146) = assay: as above; format: cell-based; conditions: Staphylococcus aureus
Excerpt: as §2

S. aureus (SG511) = assay: as above; format: cell-based; conditions: Staphylococcus aureus
Excerpt: as §2

S. pyogenes (A561) = assay: as above; format: cell-based; conditions: Streptococcus pyogenes
Excerpt: as §2

Tolerability = conditions: at and above its effective concentration
Excerpt: Gabusectin is well-tolerated at and above its effective concentration.

[3] = 10 μL of 10 mM solution on 6 mm paper disk
[4] = 20 μL of 10 mM solution on 6 mm paper disk
[5] = 40 μL of 10 mM solution on 6 mm paper disk

SMILES	Inhibition halo size (Staphylococcus aureus; [3]) [mm]	Inhibition halo size (Staphylococcus aureus; [4]) [mm]	Inhibition halo size (Staphylococcus aureus; [5]) [mm]	Solubility in medium-polar and polar organic solvents [1]	Solubility in water [1]	Stability in neutral and mildly acidic medium [2]	Stability in strongly acidic and strongly alkaline solution [2]	MIC (E. faecium (M78L)) [µg/mL]	MIC (S. aureus (Exp54146)) [µg/mL]	MIC (S. aureus (SG511)) [µg/mL]	MIC (S. pyogenes (A561)) [µg/mL]	Tolerability (Tolerability)
C/C=C/[C@H]1C(C)=C[C@@]2(C)C[C@H](C)CC[C@H]2[C@]1(C)/C(O)=C1\C(=O)C(CCC(=O)OC)N(C)C1=O (stereo partly shown) [gabusectin methyl ester]	0	7	8	soluble	not particularly soluble	Stable	unstable					
C/C=C/C1C(C)=CC2(C)CC(C)CCC2C1(C)/C(O)=C1\C(=O)C(CCC(=O)O)N(C)C1=O (stereo not shown) [gabusectin]	8	14	17	soluble	not particularly soluble	Stable	unstable	40 (≈ 90.2 µM)	20 (≈ 45.1 µM)	5 (≈ 11.3 µM)	20 (≈ 45.1 µM)	well-tolerated
